Source: ChEMBL document CHEMBL5257089, “Gamabufotalin Induces Apoptosis and Cytoprotective Autophagy through the mTOR Signaling Pathway in Hepatocellular Carcinoma” (J Nat Prod, 2023)
The source made the active and inactive calls. The calls are words filed in the database; no cut-off is given here.

Key:
Hep 3B2 [1] = assay: Induction of autophagy in human Hep3B cells assessed as rescue of mTOR phosphorylation level at upto 10 nM incubated for 48 hrs in presence of gamabufotalin by immunoblot method; type: functional, cell-based
Hep 3B2 [2] = assay: Induction of apoptosis in human Hep3B cells assessed as increase in bax level at 10 nM incubated for 48 hrs in presence of gamabufotalin by immunoblot analysis; type: functional, cell-based
Huh-7 [3] = assay: Induction of apoptosis in human Huh-7 cells assessed as viable cells at 10 nM incubated for 48 hrs in presence of gamabufotalin by Annexin V-FITC/PI staining based flow cytometry method (reference value: 91.5%); type: functional; conditions: read-out: Activity
Huh-7 [4] = assay: Induction of apoptosis in human Huh-7 cells assessed as late apoptotic cells at 10 nM incubated for 48 hrs in presence of gamabufotalin by Annexin V-FITC/PI staining based flow cytometry method (reference value: 4.7%); type: functional
Huh-7 [5] = assay: Induction of autophagic flux in human Huh-7 cells assessed as rescue of LC3-I accumulation at 10 uM incubated for 48 hrs in presence of gamabufotalin by Western blot analysis; type: functional, cell-based
Huh-7 [6] = assay: Induction of apoptosis in human Huh-7 cells assessed as increase in cleaved PARP level at 10 nM incubated for 48 hrs in presence of gamabufotalin by immunoblot analysis; type: functional, cell-based
Hep 3B2 [7] = assay: Induction of autophagic flux in human Hep3B cells assessed as rescue of p62 at 10 uM incubated for 48 hrs in presence of gamabufotalin by Western blot analysis; type: functional, cell-based
Hep 3B2 [8] = assay: Induction of apoptosis in human Hep3B cells assessed as early apoptotic cells at 25 nM incubated for 48 hrs by Annexin V-FITC/PI staining based flow cytometry method (reference value: 3.9%); type: functional
Hep 3B2 [9] = assay: Induction of autophagy in human Hep3B cells assessed as rescue of mTOR phosphorylation level at upto 25 nM incubated for 48 hrs in presence of chloroquine by immunoblot method; type: functional, cell-based
Huh-7 [10] = assay: Induction of apoptosis in human Huh-7 cells assessed as viable cells at 25 nM incubated for 48 hrs by Annexin V-FITC/PI staining based flow cytometry method (reference value: 91.5%); type: functional; conditions: read-out: Activity
Hep 3B2 [11] = assay: Induction of apoptosis in human Hep3B cells assessed as reduction in bcl-2 level […] incubated for 48 hrs in presence of 4,6-dimorpholino-N-(4-nitrophenyl)-1,3,5-triazin-2-amine by immunoblot analysis; type: functional, cell-based
Hep 3B2 [12] = assay: Antitumor activity against human Hep3B cells xenografted in nude mouse model assessed as upregulation of caspase-3 expression at 5 mg/kg,ip administered every second day for 3 weeks by Western blot analysis; type: functional, organism-based
Hep 3B2 [13] = assay: Induction of apoptosis in human Hep3B cells assessed as […] level at upto 25 nM incubated for 48 hrs by Western blot analysis; type: functional, cell-based
Huh-7 [14] = assay: Induction of apoptosis in human Huh-7 cells assessed as necrotic cells at 25 nM incubated for 48 hrs in presence of 4,6-dimorpholino-N-(4-nitrophenyl)-1,3,5-triazin-2-amine by Annexin V-FITC/PI staining based flow cytometry method (reference value: 1.9%); type: functional
Hep 3B2 [15] = assay: Induction of autophagic flux in human Hep3B cells assessed as increase in high electron density vesicles at 25 nM incubated for 48 hrs by transmission electron microscopic analysis; type: functional, cell-based
Hep 3B2 [16] = assay: Induction of autophagy in human Hep3B cells assessed as rescue of ULK1 phosphorylation level at upto 25 nM incubated for 48 hrs in presence of chloroquine by immunoblot method; type: functional, cell-based
Hep 3B2 [17] = assay: Induction of autophagy in human Hep3B cells assessed as reduction in ULK1 phosphorylation level incubated for 48 hrs by immunoblot method; type: functional, cell-based; conditions: dose 0-25 nM
Huh-7 [18] = assay: Induction of apoptosis in human Huh-7 cells assessed as late apoptotic cells at 25 nM incubated for 48 hrs by Annexin V-FITC/PI staining based flow cytometry method (reference value: 4.7%); type: functional
Huh-7 [19] = assay: Induction of apoptosis in human Huh-7 cells assessed as necrotic cells at 25 nM incubated for 48 hrs in presence of chloroquine by Annexin V-FITC/PI staining based flow cytometry method (reference value: 1.0%); type: functional
Huh-7 [20] = assay: Induction of autophagy in human Huh-7 cells assessed as downregulation of LC3II/LC3I ratio at 25 uM incubated for 48 hrs in presence of 4,6-dimorpholino-N-(4-nitrophenyl)-1,3,5-triazin-2-amine by immunoblot analysis; type: functional, cell-based
Huh-7 [21] = assay: Induction of apoptosis in human Huh-7 cells assessed as late apoptotic cells at 25 nM incubated for 48 hrs by Annexin V-FITC/PI staining based flow cytometry method (reference value: 2.2%); type: functional
Huh-7 [22] = assay: Induction of apoptosis in human Huh-7 cells assessed as necrotic cells at 25 nM incubated for 48 hrs by Annexin V-FITC/PI staining based flow cytometry method (reference value: 0.7%); type: functional
Hep 3B2 [23] = assay: Induction of apoptosis in human Hep3B cells assessed as early apoptotic cells at 25 nM incubated for 48 hrs in presence of 4,6-dimorpholino-N-(4-nitrophenyl)-1,3,5-triazin-2-amine by Annexin V-FITC/PI staining based flow cytometry method (reference value: 1.3%); type: functional
Hep 3B2 [24] = assay: Antitumor activity against human Hep3B cells xenografted in nude mouse model assessed as upregulation of cleaved caspase-3 expression at 5 mg/kg,ip administered every second day for 3 weeks by Western blot analysis; type: functional, organism-based
Huh-7 [25] = assay: Induction of apoptosis in human Huh-7 cells assessed as increase in caspase-3 expression at upto 25 nM incubated for 48 hrs by Western blot analysis; type: functional, cell-based
Hep 3B2 [26] = assay: Induction of apoptosis in human Hep3B cells assessed as upregulation of cleaved caspase-3 level […] incubated for 48 hrs in presence of 4,6-dimorpholino-N-(4-nitrophenyl)-1,3,5-triazin-2-amine by immunoblot analysis; type: functional, cell-based
Hep 3B2 [27] = assay: Induction of apoptosis in human Hep3B cells assessed as […] expression at upto 25 nM incubated for 48 hrs by Western blot analysis; type: functional, cell-based
Huh-7 [28] = assay: Induction of apoptosis in human Huh-7 cells assessed as early apoptotic cells at 25 nM incubated for 48 hrs by Annexin V-FITC/PI staining based flow cytometry method (reference value: 4.3%); type: functional
Hep 3B2 [29] = assay: Induction of autophagic flux in human Hep3B cells assessed as increase in LC3-II expression at upto 25 nM incubated for 48 hrs by Western blot analysis; type: functional, cell-based
Huh-7 [30] = assay: Induction of apoptosis in human Huh-7 cells assessed as necrotic cells at 15 nM incubated for 48 hrs by Annexin V-FITC/PI staining based flow cytometry method (reference value: 0.7%); type: functional
Huh-7 [31] = assay: Induction of apoptosis in human Huh-7 cells assessed as viable cells at 25 nM measured after 48 hrs by annexin V-FITC/Propidium iodide staining based flow cytometric analysis (reference value: 91.7%); type: functional; conditions: read-out: Activity
Huh-7 [32] = assay: Induction of apoptosis in human Huh-7 cells assessed as upregulation of bax level […] incubated for 48 hrs in presence of 4,6-dimorpholino-N-(4-nitrophenyl)-1,3,5-triazin-2-amine by immunoblot analysis; type: functional, cell-based
Huh-7 [33] = assay: Induction of apoptosis in human Huh-7 cells assessed as necrotic cells at 25 nM incubated for 48 hrs by Annexin V-FITC/PI staining based flow cytometry method (reference value: 95.4%); type: functional

## CCN(CC)CCCC(C)Nc1ccnc2cc(Cl)ccc12 (stereo not drawn) [CHLOROQUINE]
Hep 3B2 [1]
  Activity: Active
Hep 3B2 [2]
  Activity: Active
Huh-7 [3]
  viability at 0.01 µM: 65.4%
Huh-7 [4]
  Activity: 19.1%
Huh-7 [5]
  Activity: Active
Huh-7 [6]
  Activity: Active
Hep 3B2 [7]
  Activity: Active

## C[C@]12CC[C@H](O)C[C@H]1CC[C@@H]1[C@@H]2[C@H](O)C[C@]2(C)[C@@H](c3ccc(=O)oc3)CC[C@]12O [GAMABUFOTALIN]
Hep 3B2 [8]
  Activity: 9.3%
Hep 3B2 [9]
  Activity: Active
Huh-7 [10]
  viability at 0.025 µM: 80%
Hep 3B2 [11]
  Activity: Active
Hep 3B2 [12]
  Activity: Active
Hep 3B2 [13]
  Activity: Active
Huh-7 [14]
  Activity: 1.7%
Hep 3B2 [15]
  Activity: Active
Hep 3B2 [16]
  Activity: Active
Hep 3B2 [17]
  Activity: Dose-Dependent Effect
Huh-7 [18]
  Activity: 10.2%
Huh-7 [19]
  Activity: 3.4%
Huh-7 [20]
  Activity: Active
Huh-7 [21]
  Activity: 31.1%
Huh-7 [22]
  Activity: 6.3%
Hep 3B2 [23]
  Activity: 10.9%
Hep 3B2 [24]
  Activity: Active
Huh-7 [25]
  Activity: Active
Hep 3B2 [26]
  Activity: Active
Hep 3B2 [27]
  Activity: Active
Huh-7 [28]
  Activity: 8.7%
Hep 3B2 [29]
  Activity: Active
Huh-7 [30]
  Activity: 4%
Huh-7 [31]
  viability at 0.025 µM: 72%
Huh-7 [32]
  Activity: Active
Huh-7 [33]
  Activity: 57.1%
